Consider 2 compounds from patent publication US20260250278A1, “PHENYL-SUBSTITUTED DIHYDRONAPHTHYRIDINE COMPOUNDS, AND PREPARATION AND USE THEREOF” (SUZHONG PHARMACEUTICAL GROUP CO., LTD., priority 2022, published 2026).

The target in series [1] is T1, mineralocorticoid receptor (MR) (Homo sapiens, UniProt P08235).
T1 construct: expressed in transfected cells
T1 sequence (P08235 726-964 limits assumed): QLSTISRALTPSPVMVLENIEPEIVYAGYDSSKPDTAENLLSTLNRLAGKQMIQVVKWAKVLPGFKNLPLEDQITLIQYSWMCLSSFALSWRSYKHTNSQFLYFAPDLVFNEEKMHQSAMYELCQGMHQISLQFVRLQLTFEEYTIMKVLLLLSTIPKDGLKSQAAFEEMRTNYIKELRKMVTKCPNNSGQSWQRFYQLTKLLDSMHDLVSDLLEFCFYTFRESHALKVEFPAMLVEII
The experiment in a line: MR Gal4-LBD luciferase reporter gene assay in HEK293T cells (antagonism of 0.8 nM aldosterone). It is filed as cell-based. The text has this: By the characteristic of chemiluminescence reaction produced by combination of luciferase and substrate, a Gal4 DNA binding domain (DBD) fused plasmid containing a mineralocorticoid receptor (MR) ligand binding domain (LBD) and a firefly luciferase reporter gene plasmid under the control of Gal4 UAS (upstream activation sequence) were transfected into human embryonic kidney cells (HEK293). Changes of […] were judged by a level of firefly luciferase activity.
All compounds were dissolved in DMSO to prepare a 25 mM stock solution, and stored in a refrigerator at −20° C.
• 1) A compound to be tested was subjected to 3-times gradient dilution with the DMSO, with 10 concentration gradients and an initial concentration of 10 mM. • 2) A positive compound (Finerenone) was subjected to 3-times gradient dilution with the DMSO, with 10 concentration gradients and an initial concentration of 1 mM. • 3) 1000× positive control (1 mM, Finerenone) and 1000× negative control (100% DMSO) were prepared. • 4) A compound plate was sealed and shaken for 5 minutes.
• 5) All cells were cultured by ATCC standard operation, and HEK293T was experimented in an exponential growth phase. • 6) A culture medium supernatant was gently discarded. The cells were washed with PBS twice.
(3) The cells were digested with pancreatin digestive juice, the digestion was stopped with a complete culture solution, and then the cells were collected and counted.
(4) 6×10^6 HEK293T cells were inoculated into a 100 mm cell culture dish.
(5) The culture dish inoculated with the cells was cultured in a 5% CO2 incubator at 37° C. for 16 hours overnight.
• 1) Lipofectamine® 3000&P3000 transfection reagents were placed at room temperature. • 2) The Lipofectamine® 3000 reagent was added into an Opti-MEM™ culture medium, and meanwhile, the P3000, the plasmid and the Opti-MEM™ culture medium were added into another tube, taking care not to touch the tube wall. • 3) The mixture was mixed evenly by a pipette, and allowed to stand at room temperature for 5 minutes. • 4) The plasmid was added into the diluted transfection reagent, mixed evenly by a pipette, and allowed to stand at room temperature for 20 minutes. • 5) The transfection reagent mixed with the plasmid was added into a […] cell culture dish. • 6) The culture dish was cultured in a 5% CO2 incubator at 37° C. for 5 hours to 6 hours.
• 1) 25 nL of diluted compound was transferred to a cell culture plate with Echo655. • 2) The cells (referring to step 1.3) were inoculated into a 384 cell culture plate, with 17,000 cells, 25 μL of phenol red-free DMEM culture medium containing 5% CFBS and 0.8 nM Aldosteron per well.
(3) The cell culture plate was cultured in a 5% CO2 incubator at 37° C. for 18 hours to 20 hours overnight.
• 1) A Britelite plus detection reagent was placed at room temperature. 2) The 384 cell plate was placed at room temperature. • 3) 25 μL of Britelite plus detection reagent was added into each well of the cell culture plate. • 4) A luminescence was detected with Envision.
• 1) a firefly luciferase signal was obtained by reading the Luminescence to calculate an inhibition rate; • 2) % inhibition rate=100−[(RLU compound−avgRLU positive control)/(RLU negative control−avgRLU positive control)×100%, wherein the avgRLU positive control was an average value of Luminescences of all positive control wells in the whole plate; the avgRLU negative control was an average value of Luminescences of all negative control wells in the whole plate; and the RLU compound was Luminescence values of compounds to be tested with different concentrations; and • 3) IC50 of the compound was calculated by Graphpad8.0 Drawing software.
In general terms: Reporter assays use an easily measured gene product as a stand-in for the process of interest.

The nature of series [2]: Pharmacokinetic test of rats (intravenous and intragastric administration). Conditions: SD rats; for AUC(0-t) / Cmax / clearance / half-life: rat, plasma. It is filed as in vivo. The method, then: This experiment was intended to evaluate a pharmacokinetic behavior of an implementing compound after intravenous injection or intragastric administration in the rats. Intravenous injection administration: a test compound was prepared into 0.2 mg/mL clear solution, a solvent was 10% ethanol, 40% polyethylene glycol 400 and 50% water, and after administration, plasma was collected 0.083 hour, 0.25 hour, 0.5 hour, 1 hour, 2 hours, 4 hours, 8 hours and 24 hours later. Intragastric administration: a test compound was prepared into 1 mg/mL clear solution, a solvent was 10% ethanol/40% polyethylene glycol 400/50% water, and after administration, plasma was collected 0.25 hour, 0.5 hour, 1 hour, 2 hours, 4 hours, 8 hours and 24 hours later.
(§1) A concentration of the test compound in the plasma was determined by high-performance liquid chromatography-tandem mass spectrometry (LC-MS/MS). Retention time, chromatogram collection and chromatogram integration of compounds and internal standards were treated by software Analyst (Applied Biosystems), and data statistics was treated by software Analyst (Applied Biosystems).
(§2) A plasma concentration was treated by a non-atrioventricular model of Winnonlin™ Version 6.1 (Pharsight, Mountain View, CA) pharmacokinetic software, and pharmacokinetic parameters were calculated by a linear logarithmic trapezoid method.
Pharmacokinetic parameters of the compounds in the rats with an intravenous injection dose of 1 mg/kg and an intragastric and oral dose of 5 mg/kg were as shown in Table 20 below.

Series [3] in a line: Pharmacokinetic test of mice (intravenous administration). The class given is in vivo. As to conditions: mouse, plasma; CD1 mice, intravenous 1 mg/kg. Here is the method:
This experiment was intended to evaluate a pharmacokinetic behavior of a compound after intravenous injection or intragastric administration in the mice. Intravenous injection administration: a test compound was prepared into 0.2 mg/mL clear solution, a solvent was 10% ethanol/40% polyethylene glycol 400/50% ultrapure water, and after administration, plasma was collected 0.083 hour, 0.25 hour, 0.5 hour, 1 hour, 2 hours, 4 hours, 8 hours, 24 hours and 48 hours later.
as §1, §2

A further series deals with CYP3A4 (Homo sapiens, UniProt P08684). The experiment in a line: biochemical. The class given is in vitro ADME.
Sequence of CYP3A4 (P08684 2-503 limits assumed): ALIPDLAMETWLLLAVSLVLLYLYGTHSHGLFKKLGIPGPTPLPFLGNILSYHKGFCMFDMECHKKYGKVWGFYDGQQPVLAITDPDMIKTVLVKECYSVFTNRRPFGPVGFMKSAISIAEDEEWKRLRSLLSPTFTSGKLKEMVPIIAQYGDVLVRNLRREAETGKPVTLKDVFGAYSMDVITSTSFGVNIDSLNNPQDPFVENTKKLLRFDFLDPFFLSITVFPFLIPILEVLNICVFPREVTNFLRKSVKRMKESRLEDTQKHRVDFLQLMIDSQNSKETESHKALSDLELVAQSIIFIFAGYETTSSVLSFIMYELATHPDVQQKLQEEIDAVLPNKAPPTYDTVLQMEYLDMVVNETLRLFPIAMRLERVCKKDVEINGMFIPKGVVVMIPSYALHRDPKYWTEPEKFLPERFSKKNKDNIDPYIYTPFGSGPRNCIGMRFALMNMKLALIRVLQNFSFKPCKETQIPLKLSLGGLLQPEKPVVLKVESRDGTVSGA
The conditions of series [4]: mouse, in vivo. The text has this:
In particular, a maximum tolerated dose of the compound 36 after repeated administration for 14 days is more than 2.7 times that of the compound 62, especially a safety window of the dose is more than 230 times that of the equivalent dose, so that the compound has high safety.

[5] abbreviates: intragastric and oral administration 5 mg/kg.
Where [6] appears, read: CYP3A4-5M IC50, human CYP3A4, CYP3A4-5M.
The mark [7] stands for this setting: CYP3A4-5T IC50, human CYP3A4, CYP3A4-5T.

By IC50 is commonly meant the concentration needed to halve the response being measured. As a reminder, the AUC(0-t) is exposure summed from dosing to a finite time, without extrapolation to infinity. Read a low AUC(0-t) as low exposure. As usually defined, the Cmax is the highest concentration seen after dosing. For orientation: clearance means the volume of plasma or blood freed of the substance per unit of time. One may read the half-life as the time needed for the level to fall by half in the phase considered. As for `CCOc1ncc(C)c2c1[C@H](c1ccc(C#N)c3c1OCO3)C(C(N)=O)=C(C)N2` [Example 62, (S)-4-(7-cyanobenzo[d][1,3]dioxol-4-yl)-5-ethoxy-2,8-dimethyl-1,4-dihydro-1,6-naphthyridine-3-formamide], in series [1], the concentration for half-maximal inhibition (IC50) stood at 0.0148 µM. In series [2] (setting [5]), the F turned out to be 78.09%, the AUC(0-t) is 361 µg·h/mL and the highest level (Cmax) was 24000 ng/mL. In series [2] (intravenous 1 mg/kg), the AUC(0-t) was 106 µg·h/mL, the clearance is 0.13 mL/min/kg and the half-life is 10.1 h. Moreover, the AUC(0-t) in series [3] is 201 µg·h/mL. This compound came in with an IC50 against CYP3A4 (setting [6]) of 13.7 µM. At CYP3A4 (setting [7]), this compound registered a concentration for half-maximal inhibition (IC50) of 5.35 µM. Further, the “maximum tolerated dose after repeated administration for 14 days (safety in words)” value in series [4] is reported as “highly safe”.
For the compound `CCOc1ncc(C)c2c1[C@H](c1ccc(C#N)c3c1OCC3)C(C(N)=O)=C(C)N2` [Example 36, (S)-4-(4-cyano-2,3-dihydrobenzofuran-7-yl)-5-ethoxy-2,8-dimethyl-1,4-dihydro-1,6-naphthyridine-3-formamide], the results for the half-maximal inhibitory concentration (IC50) (in series [1]; at CYP3A4 (setting [6]); on CYP3A4 (setting [7])) were 0.0115 µM, 22.9 µM and 15.8 µM, respectively. In series [2] (setting [5]), this compound registered an F of 73.74%. In addition, the area under the curve AUC(0-t) in series [2] (setting [5]) stood at 365 µg·h/mL; in series [2] (intravenous 1 mg/kg) it was 94.1 µg·h/mL; in series [3], 206 µg·h/mL. The compound also displayed a Cmax in series [2] (setting [5]) of 37000 ng/mL. In series [2] (intravenous 1 mg/kg), this compound came in with a clearance of 0.14 mL/min/kg. In series [2] (intravenous 1 mg/kg), this compound gave a half-life of 12.1 h. Moreover, the “inhibitory effect on CYP3A4” value against CYP3A4 was “small inhibitory effect”. Besides, in series [4], the “maximum tolerated dose after repeated administration for 14 days, relative to compound 62” value is recorded as “more than 2.7 times that of the compound 62”. Moreover, the “safety window of the dose relative to the equivalent dose” value in series [4] (14 days) is given as “more than 230 times that of the equivalent dose”.
